Entries after “also recorded” stand apart in the source; their conditions may differ. Where two headings read alike, the source gives them in different places. Blank lines part the entries; values can stand above or below the molecule they belong to.
Assays:
Hs578T 3D MAME cultures [1] = test: Cell viability (Live/Dead) assay, Hs578T 3D MAME cultures; format: cell-based; settings: in the dark or the light, 4 days
Procedure: (§1) Three-dimensional cultures of TNBC cells were established, grown and treated with compound 2 as described above. After 4 days, a cell viability assay was performed to assess the cytotoxic effects of compound 2. The assay has two components: Calcein AM that fluoresces green when cleaved by intracellular esterases thereby labeling live cells and Ethidium Homodimer-1 that fluoresces red when incorporated in the DNA of dead cells. A solution of 4 μM Ethidium Homodimer-1 and 2 μM Calcein AM was prepared in sterile PBS. Cultures were incubated for 30 minutes at 37°C, washed once with warm PBS and replenished with warm MEGM media for live cell imaging. The samples were then imaged at 10X magnification using a Zeiss 510 META confocal microscope. Tiled 16-panel images and z-stacks through the depth of structures were captured. The images were processed to show top views using Volocity software.

[2] = system: MDA-MB-231 3D MAME cultures; test: Live-cell proteolysis assay (DQ-collagen IV) in 3D MAME cultures, MDA-MB-231; format: cell-based, human
Procedure: (§2) Proteolytic cleavage of DQ-collagen IV substrate (Invitrogen, Carlsbad, CA, USA) by live TNBC cells was imaged in real time and quantified as previously described. Briefly, glass coverslips were coated with 50 μl of 16.4 mg/ml Cultrex^TM containing 25 μg/ml DQ-collagen IV and incubated for 15 min at 37°C to solidify. TNBC cells (1.0 x 10^4) were seeded onto coated glass coverslips and incubated for 60 min. Medium containing 2% Cultrex^TM was added to the cells. The sample was added every 48 h. […] Where indicated, assays were performed in the presence of CA074 and CA074Me (5 μM each) (Peptides International, Louisville, KY, USA), compound 1 or compound 2. For experiments with the caged inhibitor, cells were exposed to dark (no irradiation) and light (irradiation at 250 W, 395–750 nm) conditions for 45 min with a tungsten halogen lamp and H2O filter on separate plates. After 4 days of culture, optical sections through the entire depth of the 3D structures were acquired on a confocal microscope and, reconstructed in 3D using Volocity software. At the time of imaging cells were stained with CellTracker Orange and nuclei with Hoechst 33342. Volocity software was used to determine cellular boundaries in each confocal slice and generate a “cytoplasmic mask” as well as to count nuclei. The intensity of DQ-collagen IV degradation fragments per cell was quantified in the entire 3D volume. Degradation fragments were segmented into those present inside or surrounding the cells by using image arithmetic as we have previously described in detail.

[3] = system: MDA-MB-231 3D MAME cultures; test: Cell viability (Live/Dead) assay, MDA-MB-231 3D MAME cultures; format: cell-based; settings: in the dark or the light, 4 days
Procedure: as §1

[4] = target: T1, CTSB activity in Hs578T cell lysates (Homo sapiens, UniProt P07858); test: Inhibition of cellular cathepsin B activity in Hs578T cell lysates (Z-Arg-Arg-AMC); format: biochemical; settings: for IC50: Hs578T lysate
T1 construct: endogenous in cells; host or cells: Hs578T (ATCC) cell lysate
Procedure: (§3) TNBC cell lines were originally purchased from American Type Culture Collection (Rockville, MD, USA) and authenticated using the STR PowerPlex 16 system (Promega). Cells were cultured in basal medium supplemented with 10% fetal bovine serum (MDA-MB-231, DMEM; Hs578T, DMEM + 10 μg/ml bovine insulin). To prepare cell lysates, cells were grown on 100 mm dishes to ~80% confluency, washed twice with PBS (phosphate buffered saline), scraped and lysed in SME buffer (250 mM sucrose, 25 mM MES, 1 mM EDTA, pH 6.5, and 0.1% Triton X-100) and then sonicated on ice three times for 10 sec each. CTSB activity was measured as previously described. Briefly, 50 μl of cell lysate was incubated with 300 μl of activator buffer (5 mM EDTA, 10 mM DTT (pH 5.2) at 37°C during 15 min. The sample (1 μl) was added to 100 μl of the activator buffer containing cell lysate and the reaction mixtures were conducted during 45 min under dark (no irradiation) and light (irradiation at 250 W, 395–750 nm) conditions for 45 min with a tungsten halogen lamp and H2O filter on separate plates as described above. The experiments were carried out in triplicate (on 96-well flat bottom black plates) at pH 6.0.

[5] = target: T2, CTSB activity in MDA-MB-231 cell lysates (Homo sapiens, UniProt P07858); test: Inhibition of cellular cathepsin B activity in MDA-MB-231 cell lysates (Z-Arg-Arg-AMC); format: biochemical; settings: for IC50: MDA-MB-231 lysate
T2 construct: endogenous in cells; host or cells: MDA-MB-231 (ATCC) cell lysate
Procedure: as §3

[6] = Photoinduced ligand exchange quantum yield; format: physicochemical
Procedure: Electronic absorption spectra were measured with a Hewlett-Packard 8453 diode array spectrophotometer. The ligand exchange quantum yield experiments were performed with a 150 W Xe arc lamp (USHIO) in a Milliarc lamp housing unit with an LPS-220 power supply and an LPS-221 igniter (PTI). A bandpass filter (Thorlabs) and long-pass filter (CVI Melles Griot) were used to select the appropriate irradiation wavelengths.
The photolysis experiments were performed in H2O with 2% acetone and in an acetone solution containing 0.25 M tetrabutylammonium, and the chloride (TBACl) in a 1 × 1 cm quartz cuvette, and the irradiation wavelengths were selected with a 395 nm long-pass filter. The photon flux of the arc lamp with a 335 nm long-pass filter and a 400 nm bandpass filter was determined to be 4.30 ± 0.25 × 10^−8 mol photons/min by ferrioxalate actinometry as previously described in detail. The quantum yields (Φ) for ligand dissociation of 2 were determined in each of the solvent systems in a 1 × 1 cm quartz cuvette. The decrease in the MLCT absorption maximum of the reactant with ε = 10,360 M^–1cm^–1 at 412 nm as a function of time was monitored at early irradiation times to calculate the rate of moles of reactant converted to intermediate, I. The increase of the MLCT absorption maximum of the product at 490 nm (ε = 9,300 M^–1cm^–1) was monitored at irradiation times after the formation of the intermediate to determine the rate of moles of product P formed. These rates along with the photon flux were used to calculate the quantum yields for the first and second steps, ΦR→I and ΦI→P, respectively.

[7] = target: T3, CTSB purified from human liver (Homo sapiens, UniProt P07858); test: Cathepsin B activity assay with purified enzyme (Z-Arg-Arg-AMC); format: biochemical; settings: for IC50: CTSB 10 nM, substrate 150 μM
T3 construct: CTSB purified from human liver was purchased from Athens Research & Technology; purchased Athens Research & Technology (Athens, GA, USA); host or cells: human liver (tissue-purified)
Procedure: CTSB purified from human liver was purchased from Athens Research & Technology (Athens, GA, USA). The enzyme activity was determined from kinetic measurements performed by fluorimetric detection of the hydrolysis product AMC at 37°C for 30 min at one-minute intervals using a Tecan SpectraFluor Plus plate-reader. The excitation and emission wavelengths were 360 and 485 nm, respectively. The fluorescent substrate Z-Arg-Arg-AMC (Bachem, Torrance, CA, USA) was used at a final concentration of 150 μM.
The enzyme was activated for 15 minutes with activator buffer (100 μl) containing 5 mM EDTA, 10 mM DTT (pH 5.2) at 37°C. The sample (1 μl) was added and the reaction mixtures were conducted during 45 min under dark (no irradiation) and light (irradiation at 250 W, 395–750 nm) conditions with a tungsten halogen lamp and H2O filter on separate plates. For the experiments under dark conditions, room lights were off and in addition the plate was covered with aluminum foil (light protection); the other plate was exposed to visible light for the same time period. The irradiation wavelength was selected by placing a 395 long-pass filter between the lamp and the sample, along with a 10 cm water cell to absorb infrared light. After photolysis, the reaction was initiated by addition of 200 μl of assay buffer (0.6 mM CaCl2, 0.6 mM MgCl2, 25 mM piperazin-N-N‘-bis[2-ethanosulfonic acid] (disodium salt)), pH 7.3 containing 150 μM Z-Arg-Arg-AMC substrate solution. Enzyme concentration was 10 nM. The experiments were carried out in triplicate in 96-well flat bottom black plates at pH 6.0. Enzyme activities are expressed as a percentage, with 100% equal to activity in the absence of inhibitor. IC50 values were determined by plotting percent activity vs. log (inhibitor concentration).

Hs578T 3D MAME cultures [8] = test: Live-cell proteolysis assay (DQ-collagen IV) in 3D MAME cultures, Hs578T; format: cell-based, human
Procedure: as §2

[9] = Stability in the dark, determined spectrophotometrically (ln A vs. t); format: physicochemical
Text: This was expected because cis-[Ru(bpy)2Cl2] was used as a racemic mixture of Δ- and Λ stereoisomers. […] The electronic absorption spectrum of 2 is highly consistent with other dications of the general formula cis-[Ru(bpy)2(RCN)2]^2+, where RCN is MeCN,^130 5-cyanouracil,^124 and protease inhibitors structurally related to 1 [17–18]. Data for 2 in water containing 2% acetone show a maximum at 420 nm (ε = 10,360 M^-1cm^-1) assigned to a singlet metal-to-ligand charge transfer (^1MLCT) transition.

[10] = not told; cited from earlier work
cathepsin L = system: cathepsin L; design: method as in PMID 12437121; settings: cited from earlier work
[11] = system: recombinant human CTSB expressed in baculovirus; design: method as in PMID 11741472; settings: cited from earlier work
Solubility (statement) = format: physicochemical
[12] = dark (no irradiation) 45 min, read-out: IC50 (dark)
[13] = light λirr = 395–750 nm, 45 min, read-out: IC50 (light)
[14] = acetone solution containing 0.25 M TBACl
[15] = water (2% acetone), λirr = 400 nm
[16] = uncaged compound 1, read-out: IC50

SMILES: Cc1cccc(CC(NC(=O)c2ccc(Cl)c(Cl)c2)C(=O)NCC#N)c1.Cc1cccc(CC(NC(=O)c2ccc(Cl)c(Cl)c2)C(=O)NCC#N)c1.F[B-](F)(F)F.F[B-](F)(F)F.[Ru+2].c1ccc(-c2ccccn2)nc1.c1ccc(-c2ccccn2)nc1 (mixture of isomers) [compound 2, Δ- and Λ-cis [Ru(bpy)2(1)2](BF4)2]
toxicity by cell viability assay (Hs578T 3D MAME cultures [1]): did not observe any toxicity
degradation of DQ-collagen IV ([2]; MDA-MB-231, 1 μM, exposed to visible light, 4 days): significantly reduced
inhibition of proteolysis in the dark ([2]; MDA-MB-231, higher concentrations than 1 μM, dark (data not shown)): significant inhibition of proteolysis
toxicity by cell viability assay [3]: did not observe any toxicity
dark/light ratio ([4]; Hs578T cell lysates): 12.6
IC50 [4, 12]: 11200 nM
IC50 [4, 13]: 890 nM
dark/light ratio ([5]; MDA-MB-231 cell lysates): 79.6
IC50 [5, 12]: 126000 nM
IC50 [5, 13]: 1580 nM
quantum yield of ligand exchange, first step ΦR→I [6, 14]: 0.056(9)
quantum yield of ligand exchange, second step ΦI→P [6, 14]: 0.032
quantum yield of ligand exchange, first step ΦR→I [6, 15]: 0.026(4)
quantum yield of ligand exchange, second step ΦI→P [6, 15]: 0.0045(9)
IC50 [7, 12]: 3400 nM
IC50 ([7]; light λirr = 395–750 nm, 45 min, 250 W, read-out: IC50 (light)): 280 nM
dark/light IC50 ratio ([7]; purified CTSB): 12
degradation of DQ-collagen IV (Hs578T 3D MAME cultures [8]; 1 μM, exposed to visible light, 4 days): significantly reduced
inhibition of proteolysis in the dark (Hs578T 3D MAME cultures [8]; higher concentrations than 1 μM, dark (data not shown)): significant inhibition of proteolysis
kobs, rate constant for decomposition in the dark ([9]; DMSO, 293 ± 2 K): 1.6 ± 0.1 × 10^−7 s^-1
kobs, rate constant for decomposition in the dark ([9]; phosphate buffered saline, pH 6.5, 293 ± 2 K): 1.2 ± 0.1 × 10^−6 s^-1

SMILES: CCCNC(=O)[C@H]1O[C@@H]1C(=O)N[C@H](C(=O)N1CCC[C@H]1C(=O)OC)[C@@H](C)CC [CA074Me]
cell permeability [10]: cell permeable
inhibition of cathepsin L (cathepsin L): inhibits

SMILES: CCCNC(=O)[C@H]1O[C@@H]1C(=O)N[C@H](C(=O)N1CCC[C@H]1C(=O)O)[C@@H](C)CC [CA074]
cell permeability [10]: non-cell permeable
inhibition of cathepsin L (cathepsin L): not

solubility in H2O (Solubility (statement)): low solubility
IC50 [4, 16]: 910 nM
IC50 [5, 16]: 1540 nM
IC50 [7, 16]: 330 nM
SMILES: Cc1cccc(C[C@H](NC(=O)c2ccc(Cl)c(Cl)c2)C(=O)NCC#N)c1 [compound 1, (S)-3,4-dichloro-N-(1-((cyanomethyl)amino)-1-oxo-3-(m-tolyl)propan-2-yl)benzamide]
inhibition of recombinant human CTSB [11]: potent, selective and reversible inhibitor
total degradation of DQ-collagen IV ([2]; MDA-MB-231, 4 days of culture, concentration of 1 not given): significantly less degradation of DQ-collagen IV; also recorded: significant reductions
pericellular proteolysis (DQ-collagen IV) ([2]; MDA-MB-231, 4 days, concentration of 1 not given): significant reductions
total degradation of DQ-collagen IV (Hs578T 3D MAME cultures [8]; 4 days of culture, concentration of 1 not given): significantly less degradation of DQ-collagen IV; also recorded: significant reductions
pericellular proteolysis (DQ-collagen IV) (Hs578T 3D MAME cultures [8]; 4 days, concentration of 1 not given): significant reductions

SMILES: CC#N.CC#N.F[P-](F)(F)(F)(F)F.F[P-](F)(F)(F)(F)F.[Ru+2].c1ccc(-c2ccccn2)nc1.c1ccc(-c2ccccn2)nc1 [compound 3, cis-[Ru(bpy)2(MeCN)2](PF6)2, reference compound]
inhibition of proteolysis (DQ-collagen IV) ([2]; MDA-MB-231, 1 μM, light vs. dark conditions, 4 days): did not inhibit proteolysis
inhibition of proteolysis (DQ-collagen IV) (Hs578T 3D MAME cultures [8]; 1 μM, light vs. dark conditions, 4 days): did not inhibit proteolysis

— PMC4643019, “Imaging Sites of Inhibition of Proteolysis in Pathomimetic Human Breast Cancer Cultures by Light-Activated Ruthenium Compound” (PLoS ONE, 2015)
